Test results reported in article PMC7777204, “Locking mixed-lineage kinase domain-like protein in its auto-inhibited state prevents necroptosis” (Proceedings of the National Academy of Sciences of the …, 2020).

Tests used:
Jurkat FADD−/− cells [1] = experiment: Jurkat FADD−/− necroptosis assay; assay type: cell-based; conditions: Homo sapiens, 10 ng/mL huTNFα, 24 h, Cell Titer Glo viability, read-out: Jurkat NEC IC50
Protocol: (§1) For the Jurkat FADD^−/− Necroptosis assay, compounds were serially diluted in 100% dimethyl sulfoxide (DMSO) (Sigma-Aldrich catalog no. 41641), and 250 nL was transferred to a sterile 384-well microtiter plate (PerkinElmer catalog no. 6007688) via Echo liquid handler (LABCYTE). Five thousand Jurkat FADD ^−/− cells (ATCC catalog no. CRL-2572) in 20 µL of modified Roswell Park Memorial Institute medium (Gibco catalog no. 10491), 10% fetal calf serum (Gibco catalog no. 100500), 1x Anti/Anti (Gibco catalog no. 15240-062), 1x L-Glutamax (Gibco catalog no. 35050-087), and 1% PenStrep (SIGMA catalog no. P4333) were seeded into each well of the prepared assay plate with compound. Cells and compounds were incubated for 30 min at 37 °C (humidified incubator with 5% CO2). After incubation, 5 µL of recombinant human TNFα (huTNFα) (Biotrend catalog no. cyt-223; 10 ng/mL final concentration [f.c.]) was added to the cells, followed by an incubation of 24 h at 37 °C. Following the incubation, the experimental plates were equilibrated to room temperature (30 min) before 25 µL of Cell Titer Glo Luminescent Cell Viability Assay System reagent (Promega catalog no. G7571) was added to the plate wells, incubated at room temperature for ∼10 min. After incubation, the samples were analyzed for luminescence by using an Envision reader (PerkinElmer).
Each assay plate contained wells with “high” and “low” controls. High controls (100% CTL) were defined as cells treated with DMSO, and low controls (0% CTL) were defined as cells treated with 10 ng/mL recombinant huTNFα. IC50 values were calculated based on the percentage of control values using a four-parameter-fitting model.
(§2) All cellular assays were done for Cpd 1, Cpd 2, Cpd 3, Cpd 4, and Cpd 5 in duplicate and in quadruplet for NSA.

[2] = target: T1, MLKL F148A executioner domain (Homo sapiens, UniProt Q8NB16, F148A); experiment: Functional NMR assay (detachment of α-helix 6), F148A variant; assay type: biochemical
T1 construct: 80 µM MLKL N-terminal executioner domain (residues 1 to 154) was used; GST (thrombin cleavage site) (cleaved yes)
T1 sequence (Q8NB16 1-154 F148A): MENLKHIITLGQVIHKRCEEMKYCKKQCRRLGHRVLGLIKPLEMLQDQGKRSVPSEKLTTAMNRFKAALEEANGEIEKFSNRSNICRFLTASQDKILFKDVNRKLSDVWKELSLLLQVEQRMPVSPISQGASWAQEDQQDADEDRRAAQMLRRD
Source text: To test the significance of the additional interaction between α-helix 6 and the four-helix bundle provided by the xanthine compounds stacking to the phenyl ring of Phe148, we used a described functional NMR assay ([12]). Binding of phytic acid (IP6) and the detergent β-D-nonylmaltoside (NM) led to the detachment of α-helix 6, which can be monitored in ^1H,^15N-correlation spectra by the altered chemical shift of the Hε1–Nε1 correlation of Trp133 and the backbone N–H correlation of Ala141 ([12]). […] Adding 12 mM NM or 500 µM IP6 led to the appearance of a second very weak peak reporting on the detached α-helix 6 with a population of the activated state (pact) of 1% and 4%, respectively (Fig. 3). […]
Fig. 3. […] The spectra depicted in A are measured with the WT protein and in B with the F148A variant. […] The asterisk means that no active conformation could be detected. Double asterisks indicate data not determined.
For the functional NMR assay ^1H,^15N-correlation spectra were recorded on a Bruker Avance III HD 600-MHz NMR spectrometer equipped with a cryogenic QCI probe in 2.5-mm NMR tubes at 298 K. Spectra were recorded with 64 complex points in the indirect dimension, 96 scans, and an interscan delay of 2 s. […] Spectra were analyzed, and peaks were integrated in CcpNnmr analysis ([39]).

Jurkat FADD−/− cells [3] = experiment: Jurkat FADD−/− cytotox assay; assay type: cell-based; conditions: Homo sapiens, without huTNFα, Cell Titer Glo viability, read-out: Jurkat TOX IC50
Protocol: as §1
MLKL antagonists were tested in cytotox assays by using Jurkat FADD^−/− and U937 cells according to the assay procedures described for the necroptosis assays, but without treatment with recombinant huTNFα and/or zVAD-fmk. High controls (100% CTL, no effect) were defined as cells treated with DMSO, and low controls (0% CTL) were defined as medium without cells (0% CTL, maximal effect).
as §2

Induction of the active state by compound alone ([2]; 500 µM compound alone): small population of the active state
Population of the activated state (pact), α-helix 6 detached ([2]; 12 mM NM + 500 µM IP6 + 500 µM compound): 90%
SMILES: Cn1c(=O)c2c(nc(S(C)(=O)=O)n2C)n(CC#Cc2cccc(O)c2)c1=O [Cpd 3]
IC50 (Jurkat FADD−/− cells [1]): 541 nM
IC50 (Jurkat FADD−/− cells [3]): 13.6 µM
